Where two headings read alike, the source gives them in different places.
Tests used:
[1] = NO-donor activity, sensor electrode amiNO-700 in water; conditions: aerobic aqueous solutions; for spontaneous NO generation: 25° C., no chemo-, photo- or enzymatic activation; for duration of NO release: compared with binuclear nitrosyl iron complexes with aromatic thiolyls
Procedure: The sensor electrode “amiNO-700” of the system “inNO Nitric Oxide Measuring System” (Innovative Instruments, Inc., Tampa, Fla., USA) was used to determine NO generated by the complexes I and II in water. NO concentration was recorded for ˜1,600 seconds (with a step of 0.2 seconds) with concentration of NO donor (0.1 μmol). A standard aqueous solution of NaNO2 (100 μmol) to which a mixture of 0.12M KCl and 2 ml 1M H2SO4 in 18 ml water was added was used to calibrate the electrochemical sensor. All the experiments were carried out in aerobic solutions at temperature 25° C. pH of solutions was measured using the membrane pH-meter “HI 8314” (HANNA Instruments, Germany).

[2] = assay type: physicochemical
Procedure: Distilled water used in the synthesis required preliminary preparation to remove oxygen dissolved therein. To this end, a flow of inert gas (argon or nitrogen) was passed through a flask with distilled water for 30 minutes. 0.84 grams (3 mmol) iron sulphate heptahydrate were dissolved in 12 ml prepared distilled water. To this solution, 0.40 g (3.5 mmol) cystamine hydrochloride dissolved in 8 ml water was added to this solution. Nitrogen monoxide flow prepared according to the technique [Yu. V. Karyakin and I. I. Angeov. Chistiye khimicheskiye veshchestva (Pure chemical substances), Moscow: Khimiya publishing house, 1974, 23] was passed through the prepared solution for 1 to 1.5 hours at ˜40° C. until crystals were formed in the solution. Reaction mixture was then allowed to stand at 6 to 8° C. for 15 to 20 hrs; a formed brown-red fine crystalline precipitate was filtered off and dried in air for 24 hours. Yield was […] (16.5%).
Di-μ-penicillamine-tetranitrosyl di-iron sulphate (Fe2S3N6C10H32O17) (II) was prepared by reacting iron sulphate (II) with D-penicillamine in a ratio 1:3. The reaction was carried out using a standard vacuum line and Shlenk's technology under nitrogen at room temperature. Oxygen was preliminary removed from water using the method of triplicate freezing and pumping off under vacuum. […]

[3] = system: line K562 cells of human erythroblast leukemia; assay: Apoptotic activity, caspase-3/-7 FLICA (FAM-DEVD-FMK) flow cytometry; assay type: cell-based; conditions: incubation 75 hours
Procedure: A method for determining activity of caspases is based on the use of fluorochromic inhibitors of caspases (FLICA). These inhibitors are capable of penetrating into a cell while not being cytotoxic. Within the cell FLICA-inhibitor is covalently bound to active caspase.
The freeze-dried reagent FAM-DEVD-FMK for determining caspase-3 and caspase-7 was experimentally used to test apoptotic cells. When FAM-DEVD-FMK is added to a cellular population of cells, it penetrates into each cell wherein covalent binding thereof to a large subunit of an active caspase heterodimer occurs and thus, it inhibits enzymatic activity. The reagent covalently bound to the enzyme remains inside the cell. […]
Upon termination of incubation term, the cells were centrifuged for 5 minutes at 1,200 rpm at room temperature (RT). […] Sample aliquots of induced and non-induced cells were taken, 2 μl reagent propidium iodide (PI) ready for use were added and the mixture was incubated at RT for 10 minutes to stain dead cells.
Fluorescence of all cell specimens was analyzed on a liquid citometer Backton Dikenson Fascaliber using a laser with 488 nm wavelength. […] In a left lower quadrant live cells were determined; in a right lower quadrant positive FLICA cells (FLICA+) were determined; in a left upper quadrant stained PI cells were determined, and in a right upper quadrant stained PI and FLICA+ cells were determined. […]

[4] = system: line K562 human erythroblastic leukemia and A549 non-small cell lung cancer cells; assay: Cytotoxicity, MTT-test on human cancer cells in vitro; assay type: cell-based
Procedure: Cells of line K562 human erythroblastic leukemia and A549 non-small cell lung cancer were used as the study object. The cells were grown in the RMPI1640 medium comprising 10% fetal bovine serum at 37° C., 5% CO2 and 100% humidity.
The cytotoxic activity testing was carried out by the standard MTT-test using 96-well plates. Seeding density of cells was 5,000 cells in a well. The cells K562 and A549 were incubated with the complexes I and II at concentrations 1 μM, 10 μM or 100 μM for 72 hours.
MTT-test is based on the capability of dehydrogenases of live cells to reduce unstained MTT-reagent to the blue crystals of formazan crystals soluble in dimethylsulfoxide (DMSO). The optic absorption of stained DMSO solutions was measured on an automated counter. The cytotoxic activity was assessed in percent by the survival of the cells and calculated according to the formula: (mean value of optic absorption in test samples/mean absorption in the control)×100. IC50 was determined by a “dose-effect” curve.

Substance: Di-μ-cystamine tetranitrosyl di-iron sulphate [complex I]
- spontaneous NO generation [1]: generate NO in aerobic aqueous solutions
- duration of NO release [1]: prolonged release of NQ
- stability of polycrystals in air [2]: remain stable in air at room temperature for a rather long time
- cells in apoptosis [3]: 77%
- initiation of caspase 3 and 7 activity / induction of apoptosis ([3]; concentration 50 μl): exhibited capability of initiating caspase 3 and 7 activity
- IC50 [4]: 50 µM

Substance: Di-μ-penicillamine-tetranitrosyl di-iron sulphate [complex II]
- spontaneous NO generation [1]: generate NO in aerobic aqueous solutions
- duration of NO release [1]: prolonged release of NQ
- stability of product in the absence of inert atmosphere [2]: stable in the absence of inert atmosphere for a long time
- IC50 ([4]; MTT-test, 72 hours, K562 and A549 cells (cell line of the value not stated), read-out: IC50 (cytotoxic activity, cell survival)): 100 µM

Reference: patent publication US8067628B2 (priority 2008, dated 2011)
